1 compound from patent EP3454861B1, “BENZOXAZINE OR QUINAZOLINE DERIVATIVES FOR USE IN THE TREATMENT OF ALZHEIMER'S DISEASE” (Biocodex, priority 2016, dated 2017) can be followed below.

In test [1] the test system is neurones corticaux. Briefly: Survival of cortical neurons after Aβ1-42 intoxication (MAP-2 immunostaining). The format is cell-based, rats. Particulars: 1 h pre-incubation, Aβ1-42 10 µM, 24 h. How it is done:
Des neurones corticaux de rats sont mis en culture comme dans la méthode décrite par Singer (1999) J. Neurosci. 19:2455-2463. Des rats femelles enceintes de 15 jours sont tuées par dislocation des cervicales (Rats Wistar, Janvier) et le fœtus est retiré de l'utérus. Les cortex sont prélevés et placés dans un milieu glacé de Leibovitz (L15, Panbiotech, Réf : P04-27055, lot : 9310614) contenant 2% de pénicilline (10 000 U/ml) et de streptomycine (10 mg/ml) (PS, Panbiotec, Réf : P06-07100, lot : 48101114) et 1% de sérum-albumine bovine (BSA, Panbiotech, Réf : P06-1391100, lot : H140603). Les cortex sont dissociés par trypsination (0,05% Panbiotech, Réf : P10-023100, lot : 5890314) pendant 20 minutes à 37°C. La réaction est stoppée par addition d'un milieu Eagle modifié de Dulbecco (DMEM, Panbiotech, réf P04-03600, lot : 9670913) contenant de la DNase I grade Il (0,1 mg/ml Panbiotech, Réf : P60-37780100, lot : H140508) et 10 % de sérum de veau fœtal (FCS, Invitrogen, Réf : 10270 à 098, lot : 41Q4120K). Les cellules sont dissociées mécaniquement par 3 passages à travers une pipette de 10 ml. Les cellules sont ensuite centrifugées à 515 g pendant 10 minutes à 4°C. […]

Test [2] deals with Bcl2. Briefly: ELISA of Bcl2 in mouse hippocampus after Aβ25-35. The format is in vivo, souris. The source says:
Le 1^er jour : une version « mélangée » (scrambled) du peptide amyloïde β25-35 (Sc.Aβ, témoin négatif) ou le peptide amyloïde β25-35 (Aβ25-35) est injecté par voie intra-cérébroventriculaire (ICV) (le peptide Aβ25-35 provoque l'intoxication cellulaire). Entre le 1^er jour et le 10^ème jour, les traitements sont administrés une fois par jour par voie intrapéritonéale (IP).
A la fin de la session de rétention d'évitement passif, le 10^ème jour, les animaux sont sacrifiés par décapitation. L'hippocampe et le cortex frontal sont disséqués et congelés dans l'azote liquide. L'hippocampe est utilisé pour mesurer le taux de peroxydation lipidique à l'aide d'une méthode colorimétrique et pour évaluer les taux de 4 marqueurs biochimiques par des tests ELISA. Le cortex est conservé à -80°C en attente d'analyses supplémentaires. Les plasmas sont également conservés en attente d'analyses supplémentaires. Les échantillons biologiques sont jetés après 3 mois.
Pour tous les dosages, les […] sont homogénéisés, après décongélation, dans un tampon Tris (Tris 50 mM, 150 mM NaCl, pH 7,5) et traités par ultrasons pendant 20 secondes. […] Pour chaque dosage, l'absorbance est lue à 450 nm et la concentration est calculée en utilisant la courbe standard. Les résultats sont exprimés en pg ou ng de marqueur par mg de tissu et en pourcentage de solution Sc.Aβ + véhicule. 6 échantillons par groupe (n = 36 kits ELISA) sont dosés en double.
A general note: An ELISA detects its analyte on a solid surface through an enzyme-linked reagent.

On to `CCNC1=Nc2ccc(Cl)cc2C(C)(c2ccccc2)O1` (centres unmarked) [Etifoxine, chlorhydratede 6-chloro-2-éthylamino-4-méthyl-4-phényl-4H-[3,1]benzoxazine], for which the survie des neurones entry is “restaure de manière significative la survie des neurones” in test [1] (étifoxine 3 µM, p <0,05) and “restaure de manière significative la survie des neurones” in test [1] (étifoxine 10 µM, p <0,01). For the same compound, the figures for the “Taux de protéine Bcl2” value in test [2] (Aβ25-35/Etifoxine 12.5 mg/kg IP), in test [2] (Aβ25-35/Etifoxine 25 mg/kg IP) and in test [2] (Aβ25-35/Etifoxine 50 mg/kg IP) were 97,2 ± 2,1 % de Sc.Aβ/V, 99,4 ± 2,3 % de Sc.Aβ/V and 102,3 ± 3,2 % de Sc.Aβ/V, respectively.
